Test results: patent US20040037806A1, “Aldosterone blocker therapy to prevent or treat inflammation-related disorders” (Pharmacia Corporation, priority 2002, published 2004)
Entries after “also recorded” stand apart in the source; their conditions may differ.

Tests used:
Type in all cases: in vivo, rat
osteopontin = experiment: Assay A: osteopontin immunostaining of hearts; details: angiotensin II-infused, saline-drinking Wistar rats; eplerenone 100 mpk; aldosterone replacement in adrenalectomized rats
[1] = Assay C: histopathologic analysis, semi-quantitative myocardial injury score 0 to 4; details: 7, 14 and 30 days; aldosterone+salt alone or with eplerenone 100 mg/kg/day
Experimental: The procedure of Assay B was expanded upon in a further study. […] Myocardial tissue from animals in each treatment group was examined after 7, 14, or 30 days of treatment. […] Lesions were preceded by the expression and progressive upregulation of proinflammatory molecules. […] Prior to surgery the animals were individually weighed and placed in one of the following groups: […] Potassium chloride supplementation was added to the saline solution in order to prevent the potential hypokalemia associated with aldosterone excess. Treatment At the time of the surgery, an Alzet 2002 osmotic minipump (Alza Corp., Palo Alto, Calif.) containing either vehicle (9% ethanol/87% propylene glycol/4% dH2O) or 1.0 mg/mL d-aldosterone (Sigma Chemical, St. Louis, Mo.) was inserted subcutaneously at the nape of the neck. Aldosterone was administered at a dose of 0.75 µg/hour. […] Animals were sacrificed from each group (n=8-13) after 7, 14, or 30 days of treatment. The equatorial regions of the heart were routinely processed into paraffin with an automated tissue processor (Hypercenter XP, Shandon/Lipshaw Inc., Pittsburgh, Pa.) and embedded into fresh paraffin apical side down (Shandon Embedding Center, Shandon/Lipshaw Inc.). […] Semi-quantification of myocardial injury was performed as described previously with minor modifications (7). […]

[2] = Assay C: aldosterone infusion study, radiotelemetrized arterial blood pressure; details: 30-day protocol; uninephrectomized Sprague-Dawley rats, aldosterone + salt alone or with eplerenone 100 mg/kg/day
Experimental: The procedure of Assay B was expanded upon in a further study. […] Myocardial tissue from animals in each treatment group was examined after 7, 14, or 30 days of treatment. […] Lesions were preceded by the expression and progressive upregulation of proinflammatory molecules.
Male Sprague-Dawley rats, weighing 230 to 250 g, (Harlan Sprague-Dawley Industries, Indianapolis, Ind.) were housed in a room 12-hours light/12-hours dark daily cycle at an ambient temperature of 22±1° C. (n=96). Animals were allowed one week to adjust after arrival and had free access to TEKLAD 22/5 rodent diet (Harlan TEKLAD, Madison, Wis.) and tap water until the initiation of the experiment.
Potassium chloride supplementation was added to the saline solution in order to prevent the potential hypokalemia associated with aldosterone excess.
Treatment At the time of the surgery, an Alzet 2002 osmotic minipump (Alza Corp., Palo Alto, Calif.) containing either vehicle (9% ethanol/87% propylene glycol/4% dH2O) or 1.0 mg/mL d-aldosterone (Sigma Chemical, St. Louis, Mo.) was inserted subcutaneously at the nape of the neck. […]
Animals to be sacrificed after 7 or 14 days of treatment were uninephrectomized and implanted with an Alzet minipump. […] Animals were monitored daily for signs of distress and infection at the surgical site. […]
Radiotelemetrized arterial blood pressure was calculated with the […]

Row | Structure (SMILES) | Osteopontin expression in the heart (immunostaining) (osteopontin) | Myocardial tissue damage (histopathology) [1] | Systolic blood pressure (radiotelemetry) [2]
1 | C[C@]12CCC(=O)C=C1CC[C@@H]1[C@@H]2[C@@H](O)C[C@]2(C=O)[C@@H](C(=O)CO)CC[C@@H]12 [aldosterone] | restored osteopontin expression | No vascular or myocardial lesions; also recorded: focal arterial and myocardial alterations were observed starting at 14 days | induced severe hypertension; also recorded: induced a progressive increase in blood pressure with time
2 | COC(=O)[C@@H]1CC2=CC(=O)CC[C@]2(C)[C@@]23O[C@@H]2C[C@@]2(C)[C@@H](CC[C@@]24CCC(=O)O4)[C@H]13 [eplerenone] | prevented osteopontin expression | markedly attenuated myocardial injury at all time points | significantly reduced at days 8-30; also recorded: remained elevated compared to vehicle+salt controls
